Entries after “also recorded” stand apart in the source; their conditions may differ. Where a SMILES comes first, the peptide text is derived from it. [ ]: non-standard residue; d: D form. The star is where a group is joined. Hexanoyl = CCCCCC(=O)*; Ahx = NCCCCCC(=O)O

Series [1] is described as follows: Blood-brain barrier penetrability study. Format: in vivo, rat. The settings on record: carotid infusion, 30 minutes. As for the experimental part:
To evaluate the of ability dihexa to penetrate the BBB and accumulate in the brain rats were fitted with carotid cannulas and infused with 10 μCi of ^3H-dihexa and 2 μCi of ^14C inulin, a vascular space marker, in 100 μL of isotonic saline. Thirty minutes after infusion, brains were removed and dissected and blood samples taken. After solubilization, ^3H and ^14C were quantified by dual window scintillation counting to determine the amount of dihexa and inulin in brain and blood samples. The ratio of dihexa/inulin in blood was then used to account for any blood contamination in the various brain regions.

The subject of a further series is hippocampal neurons. Kind of series: Immunocytochemistry: percent correlation of spines to synaptic markers. Format: cell-based, rat. Particulars: 10^−12 M, 5 days. The procedure:
(§1) Transfected neurons were treated, fixed and stained. Briefly, cells were permeablized with 0.1% Triton X-100 detergent (Bio-Rad; Hercules, Calif.) for 10 minutes. An 8% bovine serum albumin (Intergen Company; Burlington, Mass.) in PBS was used to prevent non-specific binding for one hour at R.T.; Primary antibody incubations were at a 1:2500 dilution (see below) in 1% BSA in PBS at 4° C. overnight. Secondary antibody, 1:3000 Alexafluor 488 goat-anti-mouse (Invitrogen: Carlsbad, Calif.) was applied for two hours at room temperature. Coverslips were mounted with ProLong Gold anti-fade reagent (Invitrogen; Carlsbad, Calif.) and all washes were done with PBS. Imaging and analysis were performed as described above. For presynaptic excitatory transmission the VGLUT1 (Synaptic Systems, Goettingen, Germany) marker (Balschun, Moechars et al.) was employed and for general presynaptic transmission synapsin1 (Synaptic Systems, Goettingen, Germany) (Ferreira and Rapoport 2002) was applied. A postsynaptic function was established by PSD-95 (Milipore, Billerica, Mass.) (El-Husseini, Schnell et al. 2000). In each instance the total number of spines was counted for the treatment groups, control, Nle1-AngIV and Dihexa, to ensure an active phenotype. The total number of actin enriched spines adjacent to VGLUT1 or Synapsin were counted and converted to a percentage as the percent correlation of treatment-induced spines to presynaptic markers is a strong indicator of ability to transmit excitatory signals.
as §1, with “fixed and stained as previously described in Chapter two. Briefly, cells” for “fixed and stained. Briefly, cells”, “enriched spines (red) adjacent to” for “enriched spines adjacent to”
Transfected neurons were treated and fixed as described above. Following fixation, cells were rinsed in PBS and permeabilized with 0.1% Triton® X-100 detergent (Bin-Rad; Hercules, Calif.), followed by two rinses in PBS and blocked with 8% bovine serum albumin (Intergen Company; Burlington, Mass.) in PBS for 1 h. […]

Another series relates to scopolamine treated rats. As to the kind of experiment: Morris water maze, scopolamine amnesia model. Format: in vivo, rat. Particulars: for mean latency to find the pedestal: Dihexa, Hinge 300 pmol, scopolamine 70 nmol. The procedure: Swim speed was determined from these values.
Where [2] appears, read: scopolamine icv, dihexa icv 1 nmol.

On to `CCCCCC(=O)N[C@@H](Cc1ccc(O)cc1)C(=O)N[C@H](C(=O)NCCCCCC(N)=O)[C@@H](C)CC` [Dihexa, N-hexanoic-Tyr-Ile-(6)-aminohexanoic amide] (Hexanoyl-Tyr-Ile-[Ahx]-NH2), for which the “average 3H/14C for blood” value in series [1] is recorded as 1687. In addition, in series [1] (14C-inulin vascular marker), the “concentration of 3H-dihexa in brain regions (3H/14C ratio vs blood)” value is “all the brain regions examined avidly concentrated dihexa”. Besides, the “percent correlation of treatment-induced spines to VGLUT1, Synapsin or PSD-95 vs control” value with hippocampal neurons was “did not differ from control treated neurons in the percent correlation”. Besides, the “Number of spines/50 μm” value in the series on hippocampal neurons (PSD-95 study) came out at 43 spines/50 μm; with hippocampal neurons (Synapsin study), 37 spines/50 μm; in the series on hippocampal neurons (VGLUT1 study), 44 spines/50 μm. Besides, the “mean latency to find the pedestal” value is given as 115.2 s in the series with scopolamine treated rats (day one of training, icv); 62.3 s with scopolamine treated rats (final day of training (day 8), icv); 63.0 s with scopolamine treated rats (fourth day of training, icv). Moreover, the “time spent in the target quadrant, day 9 probe trial” value with scopolamine treated rats (dihexa at its highest dose, icv, ip and oral delivery) is on record as “increased the time spent in the target quadrant”; in the series with scopolamine treated rats (dihexa ip 0.05, 0.25, 0.50 mg/kg) it was “Each of the treatment groups was different than the scopolamine”; in the series on scopolamine treated rats (dihexa oral 1.25 and 2.0 mg/kg), “Both of the treatment groups were different than the scopolamine”; in the series on scopolamine treated rats (setting [2]) it was “vehicle control groups were not different”. Further, in the series on scopolamine treated rats (i.c.v. injections, 8 days of training), the “latency to escape, Morris water maze (FIG. 21)” value is reported as “show rapid facilitation of the task”. For the same compound, the “latency to find the pedestal in the water maze” value with scopolamine treated rats (scopolamine icv, Dihexa ICV 10 pmoles (low dose)) is listed as “not 10 pmoles”; in the series with scopolamine treated rats (scopolamine icv, Dihexa ICV 100 pmoles (high dose), daily, 8 days), “reversed scopolamine-dependent learning deficits; also recorded: completely overcome the scopolamine deficits”; in the series on scopolamine treated rats (scopolamine icv, Dihexa oral 1.25 mg/kg/day (low dose)), “partially reversed”; with scopolamine treated rats (scopolamine icv, Dihexa oral 2 mg/kg/day (high dose), 2 mg/kg/day) it was “no different than controls; also recorded: completely overcome the scopolamine deficits”; in the series with scopolamine treated rats (scopolamine icv, Dihexa oral 2 mg/kg/day (high dose), listed as dihexa, 2 mg/kg/day), “indistinguishable from vehicle controls; also recorded: completely reversed the scopolamine-dependent learning deficit”. For the same compound, the “latency to find the submerged platform in the Morris water maze” value is “significantly improved performance when compared to the scopolamine group on days 5-8” in the series on scopolamine treated rats (scopolamine icv, dihexa icv 0.1 nmol); “significantly improved performance; also recorded: indistinguishable from the vehicle control group; also recorded: all time points for the 1 nmol dihexa group were different from the scopolamine group” with scopolamine treated rats (setting [2]); “not different than the scopolamine group” in the series with scopolamine treated rats (scopolamine icv, dihexa ip 0.05 mg/kg); “different than the scopolamine” with scopolamine treated rats (scopolamine icv, dihexa ip 0.25 mg/kg); “indistinguishable from vehicle controls; also recorded: different than the scopolamine; also recorded: not different than the vehicle control group” with scopolamine treated rats (scopolamine icv, dihexa ip 0.50 mg/kg, 0.5 mg/kg).

(Values after patent US9051351B2, “Hepatocyte growth factor mimics as therapeutic agents” (Washington State University, priority 2011, dated 2015).)
